“And” between values parts separate entries of the source, which are not always exact repeats. Identical values can stand only once. Toxic doses and inconclusive results are not listed.

The experiment relates to BDF1 mice, P388 leukemia ip, median survival T/C. Put plainly: NCI In Vivo Anticancer Drug Screen. Data for tumor model P388 Leukemia (intraperitoneal) in B6D2F1 (BDF1) mice. The conditions noted are these: endpoint: median survival time, higher = longer survival. Summed up: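 Survival ratio, drug arm over vehicle arm, in mice with a transplanted tumour.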
[1] abbreviates: dose: 100.0 mg/kg/injection, schedule: Q01DX009 (ip), vehicle: Klucel (hydroxypropylcellulose) (HPC).
Setting [2] is: dose: 100.0 mg/kg/injection, schedule: Q04DX003 (ip), vehicle: Klucel (hydroxypropylcellulose) (HPC).
The mark [3] stands for this setting: dose: 200.0 mg/kg/injection, schedule: Q01DX009 (ip), vehicle: Klucel (hydroxypropylcellulose) (HPC).
[4] abbreviates: dose: 200.0 mg/kg/injection, schedule: Q04DX003 (ip), vehicle: Klucel (hydroxypropylcellulose) (HPC).
Where [5] appears, read: dose: 400.0 mg/kg/injection, schedule: Q01DX009 (ip), vehicle: Klucel (hydroxypropylcellulose) (HPC).
Where [6] appears, read: dose: 400.0 mg/kg/injection, schedule: Q04DX003 (ip), vehicle: Klucel (hydroxypropylcellulose) (HPC).
Setting [7] is: dose: 100.0 mg/kg/injection, schedule: Q01DX009 (ip), vehicle: saline.
Setting [8] is: dose: 100.0 mg/kg/injection, schedule: Q01DX009 (ip), vehicle: saline with Tween-80.

Turning to `N#[N+]c1cnc([O-])[nH]c1=O`, the T/C by setting is: (dose: 1.25 mg/kg/injection, schedule: Q01DX010 (ip), vehicle: saline) 175 % of control; (dose: 2.5 mg/kg/injection, schedule: Q01DX010 (ip), vehicle: saline) 185 % of control; (dose: 5.0 mg/kg/injection, schedule: Q01DX010 (ip), vehicle: saline) 172 % of control and 210 % of control; (dose: 10.0 mg/kg/injection, schedule: Q01DX010 (ip), vehicle: saline) 240 % of control and 177 % of control.

For the compound `CCOC(=O)C(C(=O)OCC)C1C=CCC1` (stereo not given), the T/C is, setting by setting: under setting [1], 100 % of control; under setting [2], 95 % of control; under setting [3], 104 % of control; under setting [4], 116 % of control; under setting [5], 109 % of control; under setting [6], 100 % of control.

`CCN(CC)CC(C)Nc1ccc(C)c2sc3ccccc3c(=O)c12` (stereo not given): the T/C (dose: 33.0 mg/kg/injection, schedule: Q04DX003 (ip), vehicle: saline sonified) is 118 % of control; the T/C (dose: 44.0 mg/kg/injection, schedule: Q01DX009 (ip), vehicle: saline) is 159 % of control; the T/C (dose: 66.0 mg/kg/injection, schedule: Q01DX009 (ip), vehicle: saline) was 200 % of control and 209 % of control; the T/C under setting [7] was 190 % of control; the T/C (dose: 112.5 mg/kg/injection, schedule: Q04DX003 (ip), vehicle: saline sonified) is 154 % of control; the T/C (dose: 300.0 mg/kg/injection, schedule: Q04DX003 (ip), vehicle: saline sonified) is 163 % of control.

On to `CC12CCC(Cl)CC1=CCC1C2CCC2(C)C1CCCN2CCCl` (stereo not given), for which the T/C (dose: 12.5 mg/kg/injection, schedule: Q01DX001 (ip), vehicle: saline with Tween-80) is 105 % of control; the T/C (dose: 12.5 mg/kg/injection, schedule: Q01DX001 (ip), vehicle: saline) is 102 % of control; the T/C (dose: 25.0 mg/kg/injection, schedule: Q01DX001 (ip), vehicle: saline with Tween-80) is 113 % of control; the T/C (dose: 25.0 mg/kg/injection, schedule: Q01DX001 (ip), vehicle: saline) was 117 % of control.

Regarding `CCOC(=O)Nc1cc2c(c(N)n1)N=C(CN(C)c1ccccc1)CN2`, the T/C (dose: 12.5 mg/kg/injection, schedule: Q01DX001 (ip), vehicle: Klucel (hydroxypropylcellulose) (HPC)) is 123 % of control; the T/C (dose: 50.0 mg/kg/injection, schedule: Q01DX001 (ip), vehicle: Klucel (hydroxypropylcellulose) (HPC)) is 164 % of control; the T/C (dose: 100.0 mg/kg/injection, schedule: Q01DX001 (ip), vehicle: Klucel (hydroxypropylcellulose) (HPC)) is 211 % of control.

Regarding `BrC1C2CC(c3ccccc32)C1Br` (stereo not given), the T/C was 109 % of control (dose: 100.0 mg/kg/injection, schedule: Q01DX001 (ip), vehicle: saline); 100 % of control under setting [7]; 100 % of control (dose: 100.0 mg/kg/injection, schedule: Q04DX003 (ip), vehicle: saline); 104 % of control (dose: 200.0 mg/kg/injection, schedule: Q01DX001 (ip), vehicle: saline); 104 % of control (dose: 200.0 mg/kg/injection, schedule: Q01DX009 (ip), vehicle: saline); 91 % of control (dose: 200.0 mg/kg/injection, schedule: Q04DX003 (ip), vehicle: saline). For the same compound, the T/C by setting is: (dose: 400.0 mg/kg/injection, schedule: Q01DX001 (ip), vehicle: saline) 100 % of control; (dose: 400.0 mg/kg/injection, schedule: Q01DX009 (ip), vehicle: saline) 109 % of control; (dose: 400.0 mg/kg/injection, schedule: Q04DX003 (ip), vehicle: saline) 104 % of control.

On to `CS(=O)(=O)OCC(O)C(O)COS(C)(=O)=O` (stereo not given), for which the T/C (dose: 50.0 mg/kg/injection, schedule: Q01DX010 (ip), vehicle: saline) was 109 % of control; the T/C under setting [8] is 91 % of control; the T/C (dose: 100.0 mg/kg/injection, schedule: Q01DX010 (ip), vehicle: saline) is 109 % of control; the T/C (dose: 200.0 mg/kg/injection, schedule: Q01DX009 (ip), vehicle: saline with Tween-80) was 100 % of control; the T/C (dose: 200.0 mg/kg/injection, schedule: Q01DX010 (ip), vehicle: saline) was 100 % of control; the T/C (dose: 400.0 mg/kg/injection, schedule: Q01DX009 (ip), vehicle: saline with Tween-80) is 87 % of control. Further, the T/C was 209 % of control (dose: 400.0 mg/kg/injection, schedule: Q01DX010 (ip), vehicle: saline) and 163 % of control (dose: 800.0 mg/kg/injection, schedule: Q01DX010 (ip), vehicle: saline).

`COC(=O)C12OCC34C(CC(C(C)=O)C(C)(CC(=O)O)C3C(O)C1O)OC(=O)C(OC(=O)/C=C(\C)C(C)C)C24` (stereo not given): the T/C (dose: 0.25 mg/kg/injection, schedule: Q01DX009 (ip), vehicle: saline) is 94 % of control; the T/C (dose: 0.5 mg/kg/injection, schedule: Q01DX009 (ip), vehicle: saline) is 92 % of control; the T/C (dose: 2.0 mg/kg/injection, schedule: Q01DX009 (ip), vehicle: saline) was 92 % of control; the T/C (dose: 4.0 mg/kg/injection, schedule: Q01DX009 (ip), vehicle: saline) is 90 % of control.

On to `Cc1cccc2nc(Oc3ccccc3)nc(=O)n12`, for which the T/C by setting is: (dose: 50.0 mg/kg/injection, schedule: Q01DX009 (ip), vehicle: saline with Tween-80) 96 % of control; under setting [8], 99 % of control.

Turning to `C=C(C)C1CCC2=CC(CC3(C)OC3C3=CC(C(=O)OC)=C(C1)O3)OC2=O` (stereo not given), the T/C (dose: 50.0 mg/kg/injection, schedule: Q01DX009 (ip), vehicle: Klucel (hydroxypropylcellulose) (HPC)) was 86 % of control.

As for `CCCCOC1OCN(c2ccc(OC)cc2)CC1(C)C` (stereo not given), the T/C is, setting by setting: (dose: 50.0 mg/kg/injection, schedule: Q01DX009 (ip), vehicle: saline + alcohol) 114 % of control; (dose: 100.0 mg/kg/injection, schedule: Q01DX009 (ip), vehicle: saline + alcohol) 107 % of control; (dose: 200.0 mg/kg/injection, schedule: Q01DX009 (ip), vehicle: saline + alcohol) 118 % of control.

For the compound `O=C(CC(O)(C(F)(F)F)C(F)(F)F)c1ccc(Br)cc1`, the T/C is, setting by setting: (dose: 100.0 mg/kg/injection, schedule: Q01DX009 (ip), vehicle: other) 91 % of control; (dose: 100.0 mg/kg/injection, schedule: Q04DX003 (ip), vehicle: other) 120 % of control; (dose: 200.0 mg/kg/injection, schedule: Q01DX009 (ip), vehicle: other) 91 % of control; (dose: 200.0 mg/kg/injection, schedule: Q04DX003 (ip), vehicle: other) 110 % of control; (dose: 400.0 mg/kg/injection, schedule: Q01DX009 (ip), vehicle: other) 91 % of control; (dose: 400.0 mg/kg/injection, schedule: Q04DX003 (ip), vehicle: other) 120 % of control.

Regarding `COc1ccccc1NC(=O)c1ccc(Cl)cc1`, the T/C reads like this: under setting [1], 100 % of control; under setting [2], 100 % of control; under setting [3], 100 % of control; under setting [4], 100 % of control; under setting [5], 104 % of control; under setting [6], 109 % of control.

Regarding `COc1ccc2ccccc2c1/C=N/N1CCCCC1`, the T/C by setting is: (dose: 100.0 mg/kg/injection, schedule: Q04DX003 (ip), vehicle: saline with Tween-80) 110 % of control; (dose: 200.0 mg/kg/injection, schedule: Q04DX003 (ip), vehicle: saline with Tween-80) 95 % of control; (dose: 400.0 mg/kg/injection, schedule: Q04DX003 (ip), vehicle: saline with Tween-80) 115 % of control.

As for `C[N+](C)(CCc1ccccc1)CC(O)COc1ccccc1` (stereo not given), the T/C is 96 % of control (dose: 9.5 mg/kg/injection, schedule: Q01DX009 (ip), vehicle: Klucel (hydroxypropylcellulose) (HPC)); 95 % of control (dose: 9.5 mg/kg/injection, schedule: Q04DX003 (ip), vehicle: Klucel (hydroxypropylcellulose) (HPC)); 96 % of control (dose: 19.0 mg/kg/injection, schedule: Q01DX009 (ip), vehicle: Klucel (hydroxypropylcellulose) (HPC)); 95 % of control (dose: 19.0 mg/kg/injection, schedule: Q04DX003 (ip), vehicle: Klucel (hydroxypropylcellulose) (HPC)); 100 % of control (dose: 38.0 mg/kg/injection, schedule: Q04DX003 (ip), vehicle: Klucel (hydroxypropylcellulose) (HPC)).

These data come from PubChem BioAssay AID328 (DTP/NCI, 2004).
